Laboratory results as given in publication PMC8749431 (mBio, 2022).
Like-named read-outs stand apart in the source and are kept apart here.

What was measured:
[1] = system: wild-type SARS-CoV-2 (2019-nCoV/USA-WA1/2020 strain); type: cell-based
[2] = molecular target: recombinant SARS-CoV-2 S1-S2 protein (Severe acute respiratory syndrome coronavirus 2, UniProt P0DTC2); type: binding
[3] = system: SARS2-Spp binding to Huh7 cells; type: cell-based, SARS-CoV-2
VSV-Gpp = type: cell-based, vesicular stomatitis virus
icSARS-CoV-2-mNeonGreen = type: cell-based, SARS-CoV-2
SARS-CoV-2-NLuc = test: microbe, parasite or virus in culture; type: cell-based; conditions: Severe acute respiratory syndrome coronavirus 2, Vero C1008
SARS2-Spp = type: cell-based, SARS-CoV-2
[4] = system: SARS-CoV-2 S protein-mediated cell-cell fusion; type: cell-based; conditions: 30, 10, 3, 1 μM; 48 h
[5] = system: SARS-CoV-2 S protein-mediated cell-cell fusion; type: cell-based; conditions: 30 μM; 48 h
in vitro [6] = conditions: African green monkey
in vitro [7] = conditions: human
in vitro [8] = conditions: human; remark: listed apart in the source

Compound	suppression of viral RNA levels [1]	effect on viral binding to cells [3]	inhibition of VSV-Gpp entry (VSV-Gpp)	inhibition when present at early entry time points (SARS2-Spp)	inhibition when present during binding (SARS2-Spp)	inhibition of donor-recipient fusion events (SmBit-LgBit) [4]	inhibition of fusion (GFP-RFP colocalization) [5]	CC50 (in vitro [6]) [µM]	CC50 (in vitro [7]) [µM]	CC50 (in vitro [8]) [µM]	also measured
CCC(CC)COC(=O)[C@H](C)N[P@](=O)(OC[C@H]1O[C@@](C#N)(c2ccc3c(N)ncnn23)[C@H](O)[C@@H]1O)Oc1ccccc1 [remdesivir]	up to 3 log										
O=C(CCCCC1SCC2NC(=O)NC21)NCCOCCOCCN1CCN(C(c2ccc(Cl)cc2)c2ccc(C3(C(F)(F)F)N=N3)cc2)CC1 (centres unmarked) [CCZ-DB]											binding to recombinant S1-S2 protein by cross-linking ([2]; 10 µM probe, UV irradiation, Neutravidin pull-down, anti-S2 blot): direct binding
Heparan sulfate		significantly inhibited									
CCN1CCN(C(c2ccc(Cl)cc2)c2ccc(Cl)cc2)CC1 [Dichlorcyclizine, dichlorcyclizine]	up to 2 log	little or no effect	no inhibition	potent inhibition	minimal inhibition	potent inhibition	strong inhibition	> 100	> 100		EC50 (icSARS-CoV-2-mNeonGreen): single-digit micromolar range; EC50 (SARS-CoV-2-NLuc): 4.99 µM; competition of probe cross-linking to the spike protein ([2]; 30-fold excess over CCZ-DB): could outcompete
CCN(CC)CCCC(C)Nc1ccnc2cc(Cl)ccc12 (centres unmarked) [Chloroquine, chloroquine]			strong inhibition					> 100	> 100	> 30	CC50 (Huh7 cells; human): 37.5 µM
CN(C)C(=O)COC(=O)Cc1ccc(OC(=O)c2ccc(NC(=N)N)cc2)cc1 [Camostat, camostat]						did not suppress	did not decrease	> 100	> 100	> 100	
CCOC(=O)[C@H]1O[C@@H]1C(=O)N[C@@H](CC(C)C)C(=O)NCCC(C)C [E-64d]		little or no effect		displayed inhibition	displayed inhibition	did not suppress	did not decrease				inhibition when present at middle entry time point (SARS2-Spp): displayed inhibition; CC50 (MA104 cells): > 100 µM; CC50 (293ACE2 cells): > 100 µM; CC50 (Huh7 cells): > 100 µM
CN1CCN([C@@H](c2ccccc2)c2ccc(Cl)cc2)CC1 [(S)-CCZ, (S)-chlorcyclizine]			no inhibition			inhibited	showed inhibition	36.2	> 100	> 30	CC50 (Huh7 cells; human): 41.7 µM
Cc1cc(-c2nc(CN3CCC(C(=O)NCCCN4C[C@H](C)C[C@H](C)C4)CC3)co2)ccc1F [Fluoxazolevir, fluoxazolevir]	up to 2 log	little or no effect	minimal	potent inhibition	minimal inhibition	inhibited	showed inhibition	> 100	> 100	32.7	EC50 (icSARS-CoV-2-mNeonGreen): single-digit micromolar range; EC50 (SARS-CoV-2-NLuc): 1.96 µM
